Reference: article PMC12024234, “Antioxidant, Anti-Inflammatory, and Oral Bioavailability of Novel Sulfonamide Derivatives of Gallic Acid” (Antioxidants, 2025)

Tests used:
[1] = tested on: intracellular reactive oxygen species (ROS) levels in HIEC-6 cells; experiment: DCFDA / H2DCFDA ROS assay in HIEC-6; format: cell-based, Human; conditions: HIEC-6, 0.2–50 µM
Experimental: The antioxidant DCFDA assay was conducted in HIEC-6 according to the protocol provided by the manufacturer Abcam (ab11385) and as mentioned by. Cells were seeded at a cell density of 2.5 × 10^4 cells/well in a clear bottom black 96-well microplate and allowed to adhere overnight at 37 °C in a CO2 incubator. Cells were washed and incubated in 100 µL of the diluted staining DCFDA solution, prepared by diluting 20 mM DCFDA in PBS, for 45 min at 37 °C in the dark Then, the DCFDA solution was removed and GA, 3,4,5-THBS, or 3,4,5-TMBS was added to the cells at different concentrations, in addition to doxorubicin, used as a positive control. Unstained cells were designated as blank. Fluorescence was recorded at Ex/Em = 485/535 nm.
The antioxidant activity of GA, 3,4,5-THBS, and 3,4,5-TMBS was assessed in HIEC-6 cells using the fluorescent probe 2′,7′-dichlorodihydrofluorescein diacetate (H2DCFDA). This assay quantifies the oxidation of H2DCFDA to 2′,7′-dichlorofluorescein (DCF), which serves as a marker for intracellular reactive oxygen species (ROS) levels. Cells were exposed to compound concentrations ranging from 0.2 to 50 µM, and the resulting fluorescence intensities were compared to a control group treated with H2DCFDA alone.

HIEC-6 cells = experiment: Cell viability CCK-8 assay in HIEC-6; format: cell-based, Human; conditions: 24 h incubation
Experimental: Human intestinal epithelial cells (HIEC-6), originally obtained from the American Type Culture Collection (ATCC), were cultured in Opti-MEM™ I Reduced Serum Medium (Cat. No. 31985) supplemented with 20 mM HEPES, 10 mM L-glutamine, 10 ng/mL epidermal growth factor, and 4% fetal bovine serum (FBS) (New York, NY, USA). Cells were maintained in a humidified 5% CO2 incubator at 37 °C. Cell viability was assessed using the CCK-8 assay, a colorimetric method based on the reduction of water-soluble tetrazolium salts (WST-8) to a water-soluble formazan dye, with the resulting color intensity proportional to the number of viable cells. Briefly, cells were harvested at approximately 80% confluence, detached using trypsin-EDTA, and centrifuged at 1000 rpm for 5 min. The cell pellet was resuspended in fresh medium, and the density was adjusted to 1 × 10^6 cells/mL. A volume of 100 µL (1 × 10^5 cells/well) was seeded into a 96-well plate, with one well containing the medium only as background control. […] Subsequently, 10 µL of CCK-8 reagent was added to each well, and the plate was incubated for 4 h. Absorbance was measured at 450 nm using a microplate reader, results are expressed as the mean ± standard deviation (SD).

[2] = Oral bioavailability / pharmacokinetics in rats; format: in vivo, Sprague Dawley rats; conditions: for Cmax / AUC(0-inf) / AUC(0-t) / CL/F / half-life / MRT inf / Tmax: male, Sprague Dawley; for Cmax / AUC(0-inf) / AUC(0-t) / CL/F / half-life / MRT inf / Tmax / Vz: rat serum; for Cmax: 100 mg/kg (table: 100 mg dose); for AUC(0-inf) / AUC(0-t) / CL/F / half-life / MRT inf / Tmax / Vz / Distribution volume at the terminal phase (Vz) relative to GA: 100 mg/kg; for MRT inf: n = 6, read-out: MRT0–∞; for Tmax / Distribution volume at the terminal phase (Vz) relative to GA: rat; for Tmax: serum, po
Experimental: Male Sprague Dawley rats, aged 7–9 weeks and weighing 220 ± 20 g on average, were used for bioavailability studies. The animals were housed in the Laboratory Animal Research Unit at the University of Petra Pharmaceutical Center under controlled conditions: a temperature of 23 ± 2 °C, humidity of 55–65%, and a 12 h light/dark cycle. Prior to the experiments, the rats underwent a 10-day acclimatization period with free access to standard food and water. All procedures complied with the University of Petra’s animal use guidelines, which adhere to the standards of the Federation of European Laboratory Animal Sciences Association (FELASA). The rats were divided into three groups (n = 6 per group) and administered suspensions of GA, 3,4,5-TMBS, or 3,4,5-THBS prepared in 5% carboxymethylcellulose. Each compound was administered orally at a dose of 100 mg/kg, based on previous studies. Blood samples were collected from the retro-orbital plexus at 0.5, 1, 2, 3, 4, 6, 10, and 24 h post-administration. The samples were centrifuged at 5000 rpm for 10 min, and the serum was mixed with acetonitrile in a 1:3 ratio. After a second centrifugation at 5000 rpm for 15 min, the supernatant was collected for high-performance liquid chromatography (HPLC) analysis. HPLC analysis was conducted using a Shimadzu Class VP series system equipped with an LC-10AT VP pump, an SIL-10AD VP autosampler, and an SCL-10AVP system (Shimadzu, Kyoto, Japan). A C18 column (25 cm × 4.6 mm, 5 μm) was used, with a photodiode array detector set to a wavelength range of 200–400 nm. The mobile phase for TMBS and THBS consisted of a 50:50 (v/v) mixture of deionized water and acetonitrile containing 0.1% trifluoroacetic acid, flowing at 1 mL/min. For GA, the mobile phase was a 70:30 mixture of methanol and a water/sulfuric acid solution (100:2), also at a flow rate of 1 mL/min. The retention times for THBS and TMBS were 2.39 and 3.47 min, respectively, while GA eluted at 2.4 min, all detected at 254 nm. Results were analyzed using Lab Solution Software LC (version 5.3) and represent the average of three measurements.

[3] = Ferric reducing antioxidant power (FRAP) assay; conditions: compared to GA
Experimental: The FRAP assay was conducted following an adapted procedure based on the method described by Benzie (1996). The FRAP reagent was prepared fresh and warmed to 25 °C before use. The reagent was made by combining 2.5 mL of a 10 mM TPTZ solution in 40 mM hydrochloric acid, 2.5 mL of a 20 mM FeCl3·6H2O solution, and 25 mL of a 0.3 M sodium acetate buffer adjusted to pH 3.6. For the assay, 100 μL of each sample was mixed with 3 mL of the freshly prepared FRAP reagent and incubated for 4 min. After incubation, the absorbance was recorded at 593 nm using a UV-VIS spectrophotometer, with methanol serving as the blank. A standard calibration curve was generated using ascorbic acid solutions at concentrations of 100, 200, 400, 800, and 1000 μM (R^2 = 0.998). The FRAP values were calculated as μM of ascorbic acid equivalents based on the standard curve. The results presented are the mean of three independent experiments.

Structure (SMILES): NS(=O)(=O)c1cc(O)c(O)c(O)c1 [3,4,5-THBS, 3,4,5-trihydroxybenzenesulfonamide]
- ROS levels (fluorescence intensity) relative to control [1]: potent antioxidant activity
- IC50 (HIEC-6 cells): 35.5 ± 1.52 µM
- IC50 (HIEC-6 cells; Homo sapiens, HIEC-6, 24 h): 35 µM
- Cmax ([2]; n = 6): 9560 ± 1900 ng/mL
- AUC(0-inf) ([2]; n = 6): 24.2 ± 7.37 µg·h/mL
- AUC(0-t) ([2]; n = 6): 24200 ± 270 ng·h/mL
- CL/F ([2]; n = 6): 73.2 mL/min/kg
- half-life ([2]; n = 6): 126 ± 78 min
- MRT inf [2]: 2.69 ± 0.36 h
- Tmax [2]: 2 h
- Tmax ([2]; n = 6): 2 ± 0.1 h
- Vz ([2]; n = 6): 7.39 ± 2.16 (mg)/(μg/mL)
- Distribution volume at the terminal phase (Vz) relative to GA [2]: approximately ten-fold lower than that of GA
- FRAP value (antioxidant capacity) [3]: lower antioxidant activity compared to GA

Structure (SMILES): COc1cc(S(N)(=O)=O)cc(OC)c1OC [3,4,5-TMBS, 3,4,5-trimethoxybenzenesulfonamide]
- ROS levels (fluorescence intensity) relative to control [1]: potent antioxidant activity
- IC50 (HIEC-6 cells): 33.4 ± 0.7 µM
- IC50 (HIEC-6 cells; Homo sapiens, HIEC-6, 24 h): 33 µM
- Cmax ([2]; n = 6): 25800 ± 6030 ng/mL
- AUC(0-inf) ([2]; n = 6): 386 ± 43.8 µg·h/mL
- AUC(0-t) ([2]; n = 6): 173000 ± 49300 ng·h/mL
- CL/F ([2]; n = 6): 6.17 mL/min/kg
- half-life ([2]; n = 6): 430 ± 97.2 min
- MRT inf [2]: 11.9 ± 0.61 h
- Tmax [2]: 2.87 h
- Tmax ([2]; n = 6): 2.88 ± 1.31 h
- Vz ([2]; n = 6): 3.20 ± 0.55 (mg)/(μg/mL)
- Distribution volume at the terminal phase (Vz) relative to GA [2]: approximately ten-fold lower than that of GA
- FRAP value (antioxidant capacity) [3]: lower antioxidant activity compared to GA
